Reference: ChEMBL document CHEMBL1146903, “Modification of the clozapine structure by parallel synthesis” (Bioorg Med Chem Lett, 2006)

Tests used:
D(2) dopamine receptor = D(2) dopamine receptor (Homo sapiens, UniProt P14416); experiment: Displacement of [3H]methylspiperone from dopamine D2 receptor expressed in CHO cells; assay type: cell-based
D(1A) dopamine receptor = D(1A) dopamine receptor (Homo sapiens, UniProt P21728); experiment: Displacement of [3H]SCH 23390 from dopamine D1 receptor expressed in CHO cells; assay type: cell-based
Sequence of D(1A) dopamine receptor (P21728 whole entry): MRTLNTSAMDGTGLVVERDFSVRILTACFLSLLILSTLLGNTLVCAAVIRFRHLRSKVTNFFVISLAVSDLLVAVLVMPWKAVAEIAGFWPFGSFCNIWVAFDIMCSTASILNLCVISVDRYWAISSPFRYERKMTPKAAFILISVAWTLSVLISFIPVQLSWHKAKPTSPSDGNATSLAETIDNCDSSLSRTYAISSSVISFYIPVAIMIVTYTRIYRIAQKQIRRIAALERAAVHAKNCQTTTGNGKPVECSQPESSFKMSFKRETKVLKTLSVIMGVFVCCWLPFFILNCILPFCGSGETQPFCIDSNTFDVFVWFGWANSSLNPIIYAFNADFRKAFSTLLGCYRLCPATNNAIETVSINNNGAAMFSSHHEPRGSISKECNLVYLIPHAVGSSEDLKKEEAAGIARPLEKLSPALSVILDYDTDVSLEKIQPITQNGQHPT

Sequence of D(2) dopamine receptor (P14416 whole entry): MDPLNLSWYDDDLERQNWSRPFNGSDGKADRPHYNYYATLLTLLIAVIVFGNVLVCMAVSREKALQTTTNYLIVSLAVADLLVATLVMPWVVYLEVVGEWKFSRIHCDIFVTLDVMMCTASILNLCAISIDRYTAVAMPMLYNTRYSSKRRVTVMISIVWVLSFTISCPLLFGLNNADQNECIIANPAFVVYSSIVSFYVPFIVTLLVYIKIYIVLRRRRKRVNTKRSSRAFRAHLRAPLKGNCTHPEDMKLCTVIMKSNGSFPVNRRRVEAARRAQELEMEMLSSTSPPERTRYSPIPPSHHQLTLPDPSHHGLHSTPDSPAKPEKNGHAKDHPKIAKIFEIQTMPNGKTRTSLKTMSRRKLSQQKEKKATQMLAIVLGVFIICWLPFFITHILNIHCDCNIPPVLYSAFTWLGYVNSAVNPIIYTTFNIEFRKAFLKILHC

SMILES	Ki (D(2) dopamine receptor) [nM]	Ki (D(1A) dopamine receptor) [nM]
CN1CCN(C2=Nc3cc(Cl)ccc3N(NC(=O)c3ccc4c(c3)OCO4)c3ccc(Cl)cc32)CC1	286	130
COc1cccc(OC)c1C(=O)NN1c2ccc(Cl)cc2N=C(N2CCN(C)CC2)c2cc(Cl)ccc21	97	11
CN1CCN(C2=Nc3cc(Cl)ccc3N(NC(=O)c3cccc(C(F)(F)F)c3)c3ccccc32)CC1	1360	148
CCC(CC)CN1CCN(C2=Nc3cc(Cl)ccc3N(NC(=O)c3ccccc3Cl)c3ccccc32)CC1	> 3000	505
CN1CCN(C2=Nc3cc(Cl)ccc3N(NC(=O)c3cccc(C#N)c3)c3ccccc32)CC1	3650	62
Clc1ccc2c(c1)N=C(N1CCN(Cc3cccc4c3OCO4)CC1)c1ccccc1N2	80	637
COc1cccc(C(=O)NN2c3ccc(Cl)cc3N=C(N3CCN(C)CC3)c3cc(Cl)ccc32)c1	139	44
COc1ccccc1C(=O)NN1c2ccc(Cl)cc2N=C(N2CCN(C)CC2)c2ccccc21	1130	13
CN1CCN(C2=Nc3cc(Cl)ccc3N(NC(=O)c3cccc(F)c3F)c3ccccc32)CC1	–	16
O=C(NN1c2ccc(Cl)cc2N=C(N2CCN(Cc3ccc(F)cc3F)CC2)c2ccccc21)c1ccccc1Cl	> 3000	886
O=C(NN1c2ccc(Cl)cc2N=C(N2CCN(Cc3ccc4c(c3)OCCO4)CC2)c2ccccc21)c1ccccc1Cl	> 2000	238
CCCN1CCN(C2=Nc3cc(Cl)ccc3N(NC(=O)c3ccccc3Cl)c3ccccc32)CC1	409	26
CN1CCN(C2=Nc3ccccc3N(NC(=O)c3ccccc3I)c3ccc(Cl)cc32)CC1	231	7
COc1cc(C(=O)NN2c3ccccc3N=C(N3CCN(C)CC3)c3cc(Cl)ccc32)cc(OC)c1OC	3230	20
CN1CCN(C2=Nc3cc(Cl)ccc3N(NC(=O)c3cccnc3)c3ccccc32)CC1	12700	85
CCN1CCN(C2=Nc3cc(Cl)ccc3N(NC(=O)c3ccccc3Cl)c3ccccc32)CC1	709	54
CC(C)(C)CN1CCN(C2=Nc3cc(Cl)ccc3N(NC(=O)c3ccccc3Cl)c3ccccc32)CC1	> 3000	447
COc1cc(C(=O)NN2c3ccc(Cl)cc3N=C(N3CCN(C)CC3)c3ccccc32)cc(OC)c1OC	5560	31
O=C(NN1c2ccc(Cl)cc2N=C(N2CCN(Cc3cccc4c3OC(F)(F)O4)CC2)c2ccccc21)c1ccccc1Cl	> 3000	4750
Cc1ccccc1C(=O)N1c2ccc(Cl)cc2N=C(N2CCN(C)CC2)c2ccccc21	4930	1230

SMILES	Ki (D(2) dopamine receptor) [nM]	Ki (D(1A) dopamine receptor) [nM]
CN1CCN(C2=Nc3ccccc3N(NC(=O)c3ccc(C#N)cc3)c3ccc(Cl)cc32)CC1	1970	64
CN1CCN(C2=Nc3cc(Cl)ccc3N(NC(=O)c3ccccc3I)c3ccc(Cl)cc32)CC1	36	12
Cc1ccccc1C(=O)NN1c2ccc(Cl)cc2N=C(N2CCN(C)CC2)c2cc(Cl)ccc21	175	2
CN1CCN(C2=Nc3ccccc3N(NC(=O)c3ccc4c(c3)OCO4)c3ccc(Cl)cc32)CC1	1260	83
COc1cccc(C(=O)NN2c3ccccc3N=C(N3CCN(C)CC3)c3cc(Cl)ccc32)c1	1380	86
O=C(NN1c2ccc(Cl)cc2N=C(N2CCN(Cc3cccc4c3OCO4)CC2)c2ccccc21)c1ccccc1Cl	> 2000	571
Cc1ccccc1S(=O)(=O)N1c2ccc(Cl)cc2N=C(N2CCN(C)CC2)c2ccccc21	63	71
O=C(NN1c2ccc(Cl)cc2N=C(N2CCN(Cc3ccccc3F)CC2)c2ccccc21)c1ccccc1Cl	> 2000	503
CN1CCN(C2=Nc3cc(Cl)ccc3N(NC(=O)c3ccccc3Br)c3ccccc32)CC1	792	16
CN1CCN(C2=Nc3cc(Cl)ccc3N(C(=O)Nc3cc(Cl)cc(Cl)c3)c3ccccc32)CC1	3900	175
COc1cccc(OC)c1C(=O)NN1c2ccccc2N=C(N2CCN(C)CC2)c2cc(Cl)ccc21	197	6
CN1CCN(C2=Nc3ccccc3N(NC(=O)c3cc(F)c(F)c(F)c3F)c3ccc(Cl)cc32)CC1	759	156
CN1CCN(C2=Nc3ccccc3N(NC(=O)c3cc(F)ccc3C(F)(F)F)c3ccc(Cl)cc32)CC1	421	22
CN1CCN(C2=Nc3cc(Cl)ccc3N(NC(=O)c3cc(F)c(F)c(F)c3F)c3ccc(Cl)cc32)CC1	270	98
CN1CCN(C2=Nc3ccccc3N(NC(=O)c3cccc(C#N)c3)c3ccc(Cl)cc32)CC1	1190	99
CN1CCN(C2=Nc3cc(Cl)ccc3N(NC(=O)c3ccc(C#N)cc3)c3ccccc32)CC1	> 2000	68
COc1cc(C(=O)NN2c3ccc(Cl)cc3N=C(N3CCN(C)CC3)c3cc(Cl)ccc32)cc(OC)c1OC	267	16
FC1(F)Oc2cccc(CN3CCN(C4=Nc5cc(Cl)ccc5Nc5ccccc54)CC3)c2O1	8	3110
CN1CCN(C2=Nc3cc(Cl)ccc3N(NC(=O)c3ccccc3Cl)c3ccccc32)CC1	–	4.1
CN1CCN(C2=Nc3cc(Cl)ccc3N(NC(=O)c3ccncc3)c3ccccc32)CC1	28400	86

SMILES	Ki (D(2) dopamine receptor) [nM]	Ki (D(1A) dopamine receptor) [nM]
CN1CCN(C2=Nc3cc(Cl)ccc3N(NC(=O)c3ccc(F)cc3C(F)(F)F)c3ccccc32)CC1	1620	49
Clc1ccc2c(c1)N=C(N1CCN(Cc3ccc4c(c3)OCCO4)CC1)c1ccccc1N2	29	583
CN1CCN(C2=Nc3cc(Cl)ccc3N(NC(=O)c3ccc4c(c3)OCO4)c3ccccc32)CC1	828	56
O=C(NN1c2ccc(Cl)cc2N=C(N2CCN(Cc3cccc(OC(F)(F)F)c3)CC2)c2ccccc21)c1ccccc1Cl	> 3000	2570
CC(C)N1CCN(C2=Nc3cc(Cl)ccc3N(NC(=O)c3ccccc3Cl)c3ccccc32)CC1	998	191
CN1CCN(C2=Nc3cc(Cl)ccc3N(NC(=O)c3cc(F)c(F)c(F)c3F)c3ccccc32)CC1	1280	32
CN1CCN(C2=Nc3cc(Cl)ccc3N(NC(=O)c3cccc(C#N)c3)c3ccc(Cl)cc32)CC1	175	47
COc1ccc(C(=O)NN2c3ccc(Cl)cc3N=C(N3CCN(C)CC3)c3ccccc32)cc1	> 3000	–
Cc1ccc(S(=O)(=O)N2c3ccc(Cl)cc3N=C(N3CCN(C)CC3)c3ccccc32)cc1	338	65
O=C(NN1c2ccc(Cl)cc2N=C(N2CCN(CC3CCCCC3)CC2)c2ccccc21)c1ccccc1Cl	> 3000	294
COc1ccccc1CNN1c2ccc(Cl)cc2N=C(N2CCN(C)CC2)c2ccccc21	202	60
Cc1ccccc1C(=O)NN1c2ccccc2N=C(N2CCN(C)CC2)c2cc(Cl)ccc21	1570	48
CC(C)CN1CCN(C2=Nc3cc(Cl)ccc3N(NC(=O)c3ccccc3Cl)c3ccccc32)CC1	> 3000	81
FC(F)(F)Oc1cccc(CN2CCN(C3=Nc4cc(Cl)ccc4Nc4ccccc43)CC2)c1	3.4	3800
Cc1ccc(CN2CCN(C3=Nc4cc(Cl)ccc4Nc4ccccc43)CC2)c(C)c1	65	482
CN1CCN(C2=Nc3cc(Cl)ccc3N(NC(=O)c3cc(F)ccc3C(F)(F)F)c3ccc(Cl)cc32)CC1	69	24
Fc1ccc(CN2CCN(C3=Nc4cc(Cl)ccc4Nc4ccccc43)CC2)c(F)c1	177	835
Cc1ccc(CN2CCN(C3=Nc4cc(Cl)ccc4N(NC(=O)c4ccccc4Cl)c4ccccc43)CC2)c(C)c1	> 3000	1100
CN1CCN(C2=Nc3cc(Cl)ccc3N(NC(=O)c3ccc(C#N)cc3)c3ccc(Cl)cc32)CC1	194	51
